Experimental data reported in ChEMBL document CHEMBL5465560, “Selectivity Literature for EUbOPEN Chemogenomic Library” (2024).
Blank lines part the entries; values can stand above or below the molecule they belong to.

Legend:
[1] = target: MAP kinase-interacting serine/threonine-protein kinase 1 (Homo sapiens) (UniProt Q9BUB5); assay: Selectivity interaction (Ambit KINOMEscan and KiNATiv profiling in Jurkat cells) EUB0000090b MKNK1; format: cell-based; details: at 1 µM
[2] = target: T1, Mitogen-activated protein kinase kinase kinase 2 (Homo sapiens) (UniProt Q9Y2U5); assay: Selectivity interaction (ActivX KiNativ screen (ex vivo kinase selectivity in human PBMCs)) EUB0001619a MAP3K2; format: cell-based; details: PBMC, at 1 µM
T1 sequence (whole entry): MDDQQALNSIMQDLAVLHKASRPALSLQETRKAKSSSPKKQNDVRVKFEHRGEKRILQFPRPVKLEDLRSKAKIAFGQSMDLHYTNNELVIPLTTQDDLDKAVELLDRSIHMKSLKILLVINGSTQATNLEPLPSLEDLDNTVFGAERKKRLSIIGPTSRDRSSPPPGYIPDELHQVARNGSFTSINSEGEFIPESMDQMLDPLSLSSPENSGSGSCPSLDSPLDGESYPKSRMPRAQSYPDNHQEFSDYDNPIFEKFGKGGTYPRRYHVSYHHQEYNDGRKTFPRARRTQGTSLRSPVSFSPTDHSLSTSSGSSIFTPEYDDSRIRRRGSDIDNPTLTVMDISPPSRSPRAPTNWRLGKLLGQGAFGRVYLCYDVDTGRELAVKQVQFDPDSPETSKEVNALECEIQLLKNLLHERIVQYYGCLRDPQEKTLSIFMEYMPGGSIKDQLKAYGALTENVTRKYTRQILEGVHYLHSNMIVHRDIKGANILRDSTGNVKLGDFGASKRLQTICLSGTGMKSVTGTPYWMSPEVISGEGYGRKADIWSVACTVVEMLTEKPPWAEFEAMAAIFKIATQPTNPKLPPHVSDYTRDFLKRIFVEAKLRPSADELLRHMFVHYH

[3] = target: T2, Serine/threonine-protein kinase tousled-like 1 (Homo sapiens) (UniProt Q9UKI8); assay: Selectivity interaction (KinomeScan (DiscoverX)) EUB0000045b TLK1
T2 sequence (whole entry): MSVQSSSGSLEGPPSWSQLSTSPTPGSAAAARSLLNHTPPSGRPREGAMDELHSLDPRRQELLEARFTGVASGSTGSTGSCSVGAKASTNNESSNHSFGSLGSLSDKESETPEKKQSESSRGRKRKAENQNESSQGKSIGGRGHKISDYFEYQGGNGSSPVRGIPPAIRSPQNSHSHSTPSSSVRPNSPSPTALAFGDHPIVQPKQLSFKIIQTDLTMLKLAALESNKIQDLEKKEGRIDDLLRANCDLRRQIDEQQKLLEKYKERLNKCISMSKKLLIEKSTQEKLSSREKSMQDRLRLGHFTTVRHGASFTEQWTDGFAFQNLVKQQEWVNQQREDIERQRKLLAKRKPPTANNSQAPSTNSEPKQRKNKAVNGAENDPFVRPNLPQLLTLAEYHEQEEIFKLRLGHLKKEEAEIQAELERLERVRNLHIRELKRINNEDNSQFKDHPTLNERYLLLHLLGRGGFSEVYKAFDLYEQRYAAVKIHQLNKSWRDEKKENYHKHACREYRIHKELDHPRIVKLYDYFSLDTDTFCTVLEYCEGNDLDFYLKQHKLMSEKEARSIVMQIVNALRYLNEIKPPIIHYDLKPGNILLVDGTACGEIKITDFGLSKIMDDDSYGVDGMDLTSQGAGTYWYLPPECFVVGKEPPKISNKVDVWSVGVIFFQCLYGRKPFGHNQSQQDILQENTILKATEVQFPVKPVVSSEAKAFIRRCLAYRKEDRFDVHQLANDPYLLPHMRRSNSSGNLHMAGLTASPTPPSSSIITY

[4] = target: Ribosomal protein S6 kinase alpha-2 (Homo sapiens) (UniProt Q15349); assay: Selectivity interaction (KinomeScan (DiscoverX)) EUB0000595a RPS6KA2; details: at 10 µM
Sequence of Ribosomal protein S6 kinase alpha-2 (Homo sapiens) (Q15349 whole entry): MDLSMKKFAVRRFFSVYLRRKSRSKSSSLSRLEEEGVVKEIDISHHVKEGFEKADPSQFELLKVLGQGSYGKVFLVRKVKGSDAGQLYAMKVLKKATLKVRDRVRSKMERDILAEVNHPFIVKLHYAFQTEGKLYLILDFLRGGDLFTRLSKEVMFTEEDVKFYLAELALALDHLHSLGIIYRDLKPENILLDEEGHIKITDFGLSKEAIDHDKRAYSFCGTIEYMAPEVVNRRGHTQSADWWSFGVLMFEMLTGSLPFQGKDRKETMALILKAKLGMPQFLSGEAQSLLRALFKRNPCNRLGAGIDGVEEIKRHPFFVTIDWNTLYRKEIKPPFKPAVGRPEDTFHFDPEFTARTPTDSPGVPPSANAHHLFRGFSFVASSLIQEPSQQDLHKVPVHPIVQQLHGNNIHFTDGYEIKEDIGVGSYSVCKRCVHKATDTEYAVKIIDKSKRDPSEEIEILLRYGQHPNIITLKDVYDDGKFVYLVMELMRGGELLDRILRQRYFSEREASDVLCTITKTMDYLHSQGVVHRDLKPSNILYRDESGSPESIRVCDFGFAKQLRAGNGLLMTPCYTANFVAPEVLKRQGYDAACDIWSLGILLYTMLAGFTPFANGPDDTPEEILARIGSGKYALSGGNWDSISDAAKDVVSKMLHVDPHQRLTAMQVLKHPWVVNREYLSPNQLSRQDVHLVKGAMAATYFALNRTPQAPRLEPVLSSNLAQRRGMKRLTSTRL

[5] = target: Serine/threonine-protein kinase 38 (Homo sapiens) (UniProt Q15208); assay: Selectivity interaction (Kinase panel (KiNativ target engagement assay in Jurkat cells)) EUB0001635a STK38; format: cell-based; details: Selectivity number of off-targets 0.0, Selectivity number of targets 233.0, Source Knowledge https://www.sciencedirect.com/science/article/pii/S2451945619300674?via%3Dihub, at 1 µM
Sequence of Serine/threonine-protein kinase 38 (Homo sapiens) (Q15208 2-465 limits assumed): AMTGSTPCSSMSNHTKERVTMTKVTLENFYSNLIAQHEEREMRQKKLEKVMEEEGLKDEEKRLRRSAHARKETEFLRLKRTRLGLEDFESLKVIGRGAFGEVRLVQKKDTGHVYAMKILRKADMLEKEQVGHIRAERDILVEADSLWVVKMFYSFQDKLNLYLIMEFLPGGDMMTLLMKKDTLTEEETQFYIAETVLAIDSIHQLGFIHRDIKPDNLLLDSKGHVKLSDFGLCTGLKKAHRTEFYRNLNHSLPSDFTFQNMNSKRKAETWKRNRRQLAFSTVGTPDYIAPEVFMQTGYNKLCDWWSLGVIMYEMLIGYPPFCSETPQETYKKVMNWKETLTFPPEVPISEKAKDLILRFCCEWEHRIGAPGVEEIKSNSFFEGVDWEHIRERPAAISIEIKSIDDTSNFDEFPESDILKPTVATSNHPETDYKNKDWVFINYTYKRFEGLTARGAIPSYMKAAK

[6] = target: CDK12/Cyclin K (Homo sapiens) (UniProt O75909+Q9NYV4); assay: (§1) Selectivity interaction (ProQinase) EUB0000171b CDK12; format: protein-complex assay
Sequence of CDK12/Cyclin K (Homo sapiens) (O75909 whole entry, looked up): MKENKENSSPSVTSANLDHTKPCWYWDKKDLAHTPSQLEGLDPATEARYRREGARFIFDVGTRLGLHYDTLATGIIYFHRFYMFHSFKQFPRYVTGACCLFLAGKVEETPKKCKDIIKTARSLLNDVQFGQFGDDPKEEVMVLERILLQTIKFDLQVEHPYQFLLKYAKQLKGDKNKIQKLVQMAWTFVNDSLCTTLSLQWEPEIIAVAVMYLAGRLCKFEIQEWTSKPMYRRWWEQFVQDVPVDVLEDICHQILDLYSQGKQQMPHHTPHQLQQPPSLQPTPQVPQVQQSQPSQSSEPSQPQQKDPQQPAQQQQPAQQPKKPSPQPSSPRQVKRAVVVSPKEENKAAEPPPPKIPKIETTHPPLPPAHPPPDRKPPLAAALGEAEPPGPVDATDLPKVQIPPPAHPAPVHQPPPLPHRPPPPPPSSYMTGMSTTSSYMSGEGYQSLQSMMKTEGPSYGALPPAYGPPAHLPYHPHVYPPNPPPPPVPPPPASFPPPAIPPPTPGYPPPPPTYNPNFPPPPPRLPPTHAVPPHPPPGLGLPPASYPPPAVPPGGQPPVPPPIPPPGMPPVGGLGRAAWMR
Sequence of CDK12/Cyclin K (Homo sapiens) (Q9NYV4 whole entry, looked up): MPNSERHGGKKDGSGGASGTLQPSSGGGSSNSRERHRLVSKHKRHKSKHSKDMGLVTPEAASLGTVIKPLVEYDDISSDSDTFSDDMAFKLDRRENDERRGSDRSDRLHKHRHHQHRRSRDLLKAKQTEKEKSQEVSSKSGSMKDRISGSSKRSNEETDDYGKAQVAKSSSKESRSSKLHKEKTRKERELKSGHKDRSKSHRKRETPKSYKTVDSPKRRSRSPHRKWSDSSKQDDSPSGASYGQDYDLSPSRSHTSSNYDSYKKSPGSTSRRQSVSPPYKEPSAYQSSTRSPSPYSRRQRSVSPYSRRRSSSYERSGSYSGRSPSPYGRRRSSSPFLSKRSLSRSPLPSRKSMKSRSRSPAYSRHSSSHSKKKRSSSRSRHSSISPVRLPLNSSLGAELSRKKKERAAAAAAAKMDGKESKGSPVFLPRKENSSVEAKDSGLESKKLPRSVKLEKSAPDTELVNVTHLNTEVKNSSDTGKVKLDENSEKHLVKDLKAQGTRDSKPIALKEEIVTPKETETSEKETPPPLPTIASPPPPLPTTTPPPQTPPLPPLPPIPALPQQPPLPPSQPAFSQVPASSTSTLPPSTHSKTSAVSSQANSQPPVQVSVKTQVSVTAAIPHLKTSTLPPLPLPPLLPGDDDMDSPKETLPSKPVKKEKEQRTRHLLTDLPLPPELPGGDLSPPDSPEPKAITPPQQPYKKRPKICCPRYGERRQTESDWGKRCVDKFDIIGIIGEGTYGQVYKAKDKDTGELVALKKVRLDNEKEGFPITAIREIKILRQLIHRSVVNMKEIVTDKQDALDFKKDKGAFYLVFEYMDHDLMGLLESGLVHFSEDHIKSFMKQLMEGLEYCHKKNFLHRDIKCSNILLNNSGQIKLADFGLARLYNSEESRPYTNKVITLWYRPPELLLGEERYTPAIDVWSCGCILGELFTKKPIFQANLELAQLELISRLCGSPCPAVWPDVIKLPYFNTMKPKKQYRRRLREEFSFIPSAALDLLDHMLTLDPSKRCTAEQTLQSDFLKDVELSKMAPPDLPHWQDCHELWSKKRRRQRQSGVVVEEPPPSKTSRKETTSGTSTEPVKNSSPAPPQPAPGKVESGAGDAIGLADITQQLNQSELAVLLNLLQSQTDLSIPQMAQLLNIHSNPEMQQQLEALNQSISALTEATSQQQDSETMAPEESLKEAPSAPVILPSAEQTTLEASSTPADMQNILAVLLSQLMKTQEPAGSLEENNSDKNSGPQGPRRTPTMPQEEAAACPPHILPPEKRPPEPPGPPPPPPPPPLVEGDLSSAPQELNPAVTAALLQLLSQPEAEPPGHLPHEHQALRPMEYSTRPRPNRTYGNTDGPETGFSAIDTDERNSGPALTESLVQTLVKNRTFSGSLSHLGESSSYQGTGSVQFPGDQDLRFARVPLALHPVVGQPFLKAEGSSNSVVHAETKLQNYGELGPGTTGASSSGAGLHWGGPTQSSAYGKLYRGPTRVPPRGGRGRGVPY

[7] = system: CDK12/Cyclin K (Homo sapiens), O75909+Q9NYV4 [R722C]; assay: as §1; format: protein-complex assay; details: at 5 µM
[8] = target: T3, cGMP-dependent protein kinase 1 (Homo sapiens) (UniProt Q13976); assay: Selectivity interaction (KinomeScan (DiscoverX)) EUB0000092b PRKG1; details: at 10 µM
T3 sequence (whole entry): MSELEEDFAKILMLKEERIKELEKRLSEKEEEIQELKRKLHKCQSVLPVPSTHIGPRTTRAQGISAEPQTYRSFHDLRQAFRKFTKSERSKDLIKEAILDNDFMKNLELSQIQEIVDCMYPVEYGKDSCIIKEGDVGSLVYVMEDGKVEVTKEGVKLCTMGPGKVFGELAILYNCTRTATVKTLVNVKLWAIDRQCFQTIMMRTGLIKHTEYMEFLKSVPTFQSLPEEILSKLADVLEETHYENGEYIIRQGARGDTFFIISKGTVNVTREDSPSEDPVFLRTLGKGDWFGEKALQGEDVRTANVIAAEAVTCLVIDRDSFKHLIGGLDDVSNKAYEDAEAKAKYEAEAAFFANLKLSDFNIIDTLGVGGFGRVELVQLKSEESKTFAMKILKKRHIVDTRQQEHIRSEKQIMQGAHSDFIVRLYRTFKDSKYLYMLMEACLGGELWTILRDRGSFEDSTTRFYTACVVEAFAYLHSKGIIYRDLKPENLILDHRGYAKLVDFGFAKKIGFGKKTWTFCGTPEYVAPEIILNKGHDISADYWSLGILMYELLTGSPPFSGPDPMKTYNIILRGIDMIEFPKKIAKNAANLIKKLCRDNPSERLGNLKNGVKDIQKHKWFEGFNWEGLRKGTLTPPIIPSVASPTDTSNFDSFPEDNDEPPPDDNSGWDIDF

Sequence of MAP kinase-interacting serine/threonine-protein kinase 1 (Homo sapiens) (Q9BUB5 whole entry, looked up): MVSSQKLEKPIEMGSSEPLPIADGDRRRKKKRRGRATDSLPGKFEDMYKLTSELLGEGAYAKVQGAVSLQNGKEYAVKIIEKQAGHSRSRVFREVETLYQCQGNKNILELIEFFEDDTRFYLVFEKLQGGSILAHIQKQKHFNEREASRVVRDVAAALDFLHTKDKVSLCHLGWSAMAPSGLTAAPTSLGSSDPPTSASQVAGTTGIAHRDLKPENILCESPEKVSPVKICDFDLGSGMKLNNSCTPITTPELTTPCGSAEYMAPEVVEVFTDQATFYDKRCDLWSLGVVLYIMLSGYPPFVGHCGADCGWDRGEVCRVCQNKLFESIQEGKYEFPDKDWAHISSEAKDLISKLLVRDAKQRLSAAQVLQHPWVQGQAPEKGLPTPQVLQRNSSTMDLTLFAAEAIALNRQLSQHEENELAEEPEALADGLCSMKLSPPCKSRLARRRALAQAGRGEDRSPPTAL

SMILES: CN(C)C/C=C/C(=O)Nc1ccc(C(=O)N2CCCC(Nc3ncc(Cl)c(-c4c[nH]c5ccccc45)n3)C2)cc1 (stereo not given)
% of control [1]: 100%

SMILES: N#Cc1cccc(-c2c[nH]c3ncnc(N4CCOCC4)c23)c1
% of inhibition [2]: 22%

SMILES: C=CC(=O)Nc1cc(-n2c(=O)ccc3cnc4ccc(-c5ccc(NS(C)(=O)=O)cc5)cc4c32)ccc1C
% of control ([3]; at 1 µM): 86%
% of control ([3]; at 10 µM): 96%

SMILES: COCC(=O)NC/C=C/c1ccc2ncnc(Nc3ccc(Oc4ccc(C)nc4)c(C)c3)c2c1 [CP-724714]
% of control [4]: 78%

SMILES: C=CC(=O)Nc1ccc(C(=O)Nc2[nH]nc3c2CN(C(=O)N[C@H](CN(C)C)c2ccccc2)C3(C)C)cc1
% of engagement [5]: 0.3%

% of control ([6]; at 1 µM): 93%
% of control ([6]; at 5 µM): 57%
% of control [7]: 66%
SMILES: C=CC(=O)Nc1cccc(C(=O)Nc2ccc(Nc3cc(-c4[nH]c(SC)nc4C)ccn3)cc2)c1

SMILES: CCC(=O)N1CCN(c2ccc(-n3c(=O)ccc4cnc5ccc(-c6cnc7ccccc7c6)cc5c43)cc2C(F)(F)F)CC1
% of control [8]: 86%
